Results taken from the NIST ThermoML archive (doi:10.1016/j.jct.2011.06.013).

Key:
[1] = 101.33 kPa, Liquid; for viscosity: Falling or rolling sphere viscometry
[2] = xn = mol fraction of the nth substance listed; details: 101 kPa, Liquid; for viscosity: Falling or rolling sphere viscometry

OCCO [1,2-ethanediol]
mass density [kg/m3], [1]
Details | Buoyancy - hydrostatic balance | Pycnometric method
293.15 K | 1113.58 | 1113.58
312.46 K | 1100.88 | –
314.45 K | – | 1099.52
333.25 K | – | 1086.3
333.55 K | – | 1086.09
334.87 K | 1085.13 | –
349.24 K | 1074.46 | –
352.85 K | – | 1071.71
353.65 K | – | 1071.1
357.05 K | – | 1068.48
365.7 K | 1061.7 | –
367.25 K | – | 1060.47
380.82 K | 1049.47 | –
381.45 K | – | 1048.95
395.55 K | 1037.07 | –
411.65 K | – | 1023
421.7 K | 1013.93 | –
433.75 K | – | 1002.77
461.55 K | – | 975.83
464.4 K | 972.98 | –

[1]
Details | viscosity [mPa·s]
293.15 K | 21.1
312.46 K | 9.925
334.87 K | 4.949
349.24 K | 3.517
365.7 K | 2.39
380.82 K | 1.815
395.55 K | 1.419
421.7 K | 0.96
464.4 K | 0.652

OCCOCCO [diethylene glycol]
mass density [kg/m3], [1]
Details | Buoyancy - hydrostatic balance | Pycnometric method
293.15 K | 1117.04 | 1117.04
298.15 K | 1114.02 | –
312.6 K | 1104.9 | –
313.15 K | – | 1104.54
314.15 K | – | 1103.88
329.28 K | 1093.62 | –
333.25 K | – | 1090.82
334.85 K | – | 1089.68
344.99 K | 1082.27 | –
349.77 K | 1078.67 | –
352.55 K | – | 1076.55
352.85 K | – | 1076.32
366.77 K | 1065.35 | –
367.25 K | – | 1064.96
381.65 K | – | 1053.01
411.05 K | – | 1026.74
413.65 K | 1024.3 | –
434.45 K | – | 1004.06
464.05 K | 973.11 | –

[1]
Details | viscosity [mPa·s]
293.15 K | 36.52
298.15 K | 28.36
312.6 K | 15.25
329.28 K | 8.458
344.99 K | 5.34
349.77 K | 4.809
366.77 K | 3.231
413.65 K | 1.409
464.05 K | 0.789

OCCOCCO [diethylene glycol] + OCCO
mass density [kg/m3], [2]
Details | 298.15 K | 318.55 K | 322.34 K | 333.45 K | 353.83 K | 367.15 K | 392.87 K | 436.08 K | 462.75 K
Buoyancy - hydrostatic balance, x2 = 0.5 | 1112.21 | – | 1097.38 | – | 1075.19 | – | 1043.14 | 1001.82 | 973.24
Pycnometric method, x1 = 0.5 | 1112.21 | 1099.83 | – | 1089.92 | – | 1064.82 | – | – | –

[2], x1 = 0.5
Details | viscosity [mPa·s]
298.15 K | 21.12
322.34 K | 8.316
353.83 K | 3.488
392.87 K | 1.641
436.08 K | 0.885
462.75 K | 0.671

OCCOCCOCCO [triethylene glycol]
[1]
Details | mass density [kg/m3]
293.15 K, Pycnometric method | 1123.06
298.15 K, Buoyancy - hydrostatic balance | 1119.75
312.96 K, Buoyancy - hydrostatic balance | 1109.61
313.15 K, Pycnometric method | 1109.47
314.15 K, Pycnometric method | 1108.77
333.25 K, Pycnometric method | 1094.96
334.85 K, Pycnometric method | 1093.76
334.96 K, Buoyancy - hydrostatic balance | 1093.69
349.25 K, Buoyancy - hydrostatic balance | 1082.8
352.55 K, Pycnometric method | 1080.21
352.85 K, Pycnometric method | 1079.98
364.44 K, Buoyancy - hydrostatic balance | 1070.74
367.25 K, Pycnometric method | 1068.46
381.45 K, Pycnometric method | 1056.66
411.65 K, Pycnometric method | 1030.16
413.73 K, Buoyancy - hydrostatic balance | 1028.27
433.75 K, Pycnometric method | 1009.54
461.56 K, Pycnometric method | 982.12
462.25 K, Buoyancy - hydrostatic balance | 981.42
476.35 K, Pycnometric method | 966.87

[1]
Details | viscosity [mPa·s]
298.15 K | 36.82
312.96 K | 19.03
334.96 K | 9.002
349.25 K | 5.945
364.44 K | 4.131
413.73 K | 1.679
462.25 K | 0.997

OCCOCCOCCO [triethylene glycol] + OCCO
mass density [kg/m3], [2]
Details | 298.13 K | 298.15 K | 322.36 K | 355.34 K | 392.2 K | 434.59 K | 462.61 K
Buoyancy - hydrostatic balance, x2 = 0.5 | 1115.1 | – | 1101.75 | 1079 | 1047.37 | 1002.88 | 968.72
Pycnometric method, x1 = 0.5 | – | 1115.45 | – | – | – | – | –

[2], x1 = 0.5
Details | viscosity [mPa·s]
298.13 K | 26.24
322.36 K | 10.13
355.34 K | 3.999
392.2 K | 1.946
434.59 K | 1.058
462.61 K | 0.705

OCCOCCOCCO [triethylene glycol] + OCCOCCO
mass density [kg/m3], [2]
Details | 298.15 K | 322.43 K | 355.15 K | 391.02 K | 432.13 K | 473.1 K
Buoyancy - hydrostatic balance, x2 = 0.5 | 1116.28 | 1104.5 | 1083.98 | 1055.33 | 1014.59 | 965.58
Pycnometric method, x1 = 0.5 | 1115.61 | – | – | – | – | –

[2], x1 = 0.5
Details | viscosity [mPa·s]
298.15 K | 32.4
322.43 K | 11.71
355.15 K | 4.468
391.02 K | 2.179
432.13 K | 1.172
473.1 K | 0.716
